# How the values were obtained:
# anti-23F antibody [1] = assay: Mass spectrometry study of anti-23F labelling; assay type: binding, human; details: 10 µM cARM, 2.7 µM anti-23F, 45 hours
# Method: To further confirm selectivity, an MS study was conducted to determine the site of labeling (Figures S10 and S11). […] No other labeling site was detected on the light chain; however, the lability of the SO2F-serine/tyrosine linkage to MS sample preparation protocols likely limited complete labeling site coverage. […] Due to the low labeling efficiency of rhamnose-AI-cARM, no labeling site could be identified. […] Determining the selectivity for antirhamnose antibodies in the presence of off-target cell surface proteins will be the focus of future in vivo studies.
# Mass Spectrometry Study – Anti-23F Labelling
# Anti-23F (2.7 µM) was incubated with 10 µM of Biotin-AI-cAR M 4 or Biotin-SO2F-cAR M 12, or PBS (antibody only) for 45 hours before MS analysis. Analysis was completed by Bioinformatics Solutions
# Inc. Briefly, for intact protein analysis each sample was treated with PNGase F to remove glycans followed by LC-MS analysis. To determine site of labelling, each sample was digested with tryspin, chymostrypsin, and pepsin then analyzed by LC-MS/MS on a timsTOF Pro. Peptide spectra were mapped to a known antibody sequence (anti -23F antibody, Creative Biolabs - PABX-173). No labelling was identified with acyl imidazole containing cARM 4. […]
# approxima tely 30% labelling post MS protocol (Figure S11)
# Figure S10. Sample analysis of peptide mapping of anti-23F heavy chain. Modification with cARM 12 is […]
# (1 picture or pasted object on this page, not shown here)
# [2] = tested on: human IgG (polyclonal antirhamnose antibodies); assay: BLI monitoring of covalent reaction with human IgG (Figure 4B); assay type: binding; details: 10 μM cARM, 230 μM human IgG, up to 25 h
# Description: (§1) The design of rhamnose-SO2F-cARM was again supported by in-silico docking and predicted to preorganize electrophilic SO2F proximal to lysine 104 and serine 53 of the anti-23F heavy chain as well as tyrosine 32 of the light chain (Figure S3). To evaluate the capacity of rhamnose-SO2F-cARMs to specifically label polyclonal antirhamnose antibodies, a tool cARM with a biotin TBD was synthesized (compound 12, Figure 4A, Scheme S5). As an orthogonal kinetics assay to fluorescent gels, tool compound 12 labeling kinetics was first evaluated using an in-house BLI assay and compared to acyl imidazole cARM and ARM analogs. […] Solutions were immediately loaded onto streptavidin probes (Figure 4B, Figure S8). In this assay, rhamnose competition blocks noncovalent antirhamnose recruitment, thus the signal amplitude is directly proportional to the covalently labeled antibody product.
# (§2) Figure 4 Selectivity and kinetic analysis of optimized Rha-SO2F-cARMs A. Chemical structures of tool compounds used in this study. B. cARM 12 (10 μM) was incubated with human IgG or BSA (230 μM) then diluted 8× with 100 mM competitor rhamnose spiked kinetics buffer and loaded onto streptavidin probes in BLI. The association plateau was plotted against time to yield the % labeled vs time covalent labeling curve C. Kinetic fluorescence SDS-PAGE assay similar to that in Figure 2D. […]
# BSA = target: T1, BSA (Bos taurus, UniProt P02769); assay: BLI monitoring of covalent reaction, BSA control; assay type: binding; details: 10 μM cARM, 230 μM BSA in lieu of IgG
# T1 construct: purchased Sigma Aldrich A9576-50ML
# Description: as §1, §2
# anti-23F antibody [3] = assay: Kinetic SDS-PAGE fluorescence labelling kinetics; assay type: binding, human; details: rhamnose and antirhamnose antibody; approximated from KI
# Method: Figure 2 Capacity of Rha-cARMs to specifically covalently engage monoclonal anti-23F and serum anti-rhamnose. A. Chemical structures of the molecules investigated. B. Assessment of covalent vs noncovalent (cARM/ARM) engagement of human serum antirhamnose antibody via an ELISA assay. Each ARM/cARM (2 μM) was incubated with 2% human serum for 48 h and subsequently incubated directly on a streptavidin ELISA plate. Recruitment was evaluated by the addition of anti-IgG or anti-IgM HRP-conjugated secondary antibody with subsequent chromogenic substrate addition. “Comp” represents the addition of competitor rhamnose (500 mM) during 48 h of incubation. […] D. Kinetic SDS-PAGE fluorescence imaging experiment to determine Rha-AI-cARM/anti-23F antibody labeling kinetics using A647-cARM (8). cARM 8 (2–100 μM) was incubated with anti-23F antibody (2 μM) for up to 4 h. A representative fluorescence gel image is included corresponding to compound 8 (50 μM) incubated with either anti-23F antibody or isotype human IgG. Densitometry analysis with ImageJ was used to quantify relative band intensities. […] The error is calculated by alternative fits of initial rates data (all within the linear labeling range). […]
# Figure 4 Selectivity and kinetic analysis of optimized Rha-SO2F-cARMs A. Chemical structures of tool compounds used in this study. […] Kinetic fluorescence SDS-PAGE assay similar to that in Figure 2D. […]
Structure (SMILES),site of labelling (LC-MS/MS peptide mapping) (anti-23F antibody [1]),labelling by intact MS (anti-23F antibody [1]; post MS protocol) [%],reaction time to plateau of labeled antibody signal [2] [h],loading/labeling with BSA (BSA),Kd (anti-23F antibody [3]) [µM]
C[C@@H]1O[C@@H](OCCNC(=O)C(CCCCNC(=O)OCCOCCOCCOCCOCCOCCOCCOCCNC(=O)CCCC[C@@H]2SC[C@@H]3NC(=O)N[C@@H]32)NC(=O)c2cccc(S(=O)(=O)F)c2)[C@H](O)[C@H](O)[C@H]1O (some centres unmarked) [compound 12],only lysine 104 of antibody heavy chain,~30,≤ 10,minimal loading/labeling,
"C[C@H](O)[C@H](O)[C@@H](O)[C@@H](O)C=O [rhamnose, L-rhamnose]",,,,,~15

# From paper PMC10683482, “Offsetting Low-Affinity Carbohydrate Binding with Covalency to Engage Sugar-Specific Proteins for Tumor-Immune Proximity Induction” (ACS Central Science, 2023)
